Data from patent US20130210755A1, “METHODS FOR INHIBITING INSECT INFESTATIONS” (ELI LILLY AND COMPANY, priority 2010, published 2013).

Key:
Assay type in all cases: in vivo
[1] = test system: stable fly (Stomoxys calcitrans); assay: Fecal bioassay: emergence of adult stable flies from manure of horses given oral spinosad feed-through
Experimental: (§1) A study was conducted to evaluate the efficiency of oral spinosad feed-through for controlling development of immature stages of the house fly (Musca domestica) and stable fly (Stomoxys calcitrans) in the manure of treated horses. There were five treatment groups, having three horses each. Treatment groups 1-4 were administered the following pellet formulation: […]
(§2) Treatment groups 1-4 were provided the test substance top-dressed onto feed supplement and fed at a rate to deliver a dose, respectively, of approximately 0.6, 0.8, 1.0, and 1.2 mg spinosad/kg body weight/day, daily for the duration of the study. Treatment group 5 was the negative control group and was fed the above formulation without spinosad, and each horse in this treatment group received one ounce (28.3 g) of the negative control substance.
(§3) Fecal samples from the three horses in each treatment group were collected on study days—1, 3, 10, and 17, and bioassayed with eggs of house flies and stable flies, and the number of adult flies that emerged from the fecal sample bioassays were determined. The concentration of spinosyn A in the fecal samples was also determined.
(§4) Another study was carried out, similar to the above study, with a few changes. There were three spinosad administered groups, with the rates of spinosad being 0.4, 0.5, and 0.6 mg spinosad/kg of body weight. There was a positive control group, administered between 0.6 and 0.7 mg cyromazine/kg of body weight. There was also a negative control group.

[2] = test system: horn flies (Haematobia irritans); assay: Orally administered spinosad to control horn flies on cattle; conditions: flies remaining after 24 hours exposure
Experimental: A study was conducted to evaluate the efficacy of orally administered spinosad to control horn flies (Haematobia irritans), an obligate ectoparasite of cattle. A liquid spinosad formulation was topically applied to a palatable feed ration and fed to cattle at doses of 0.03, 0.10, 0.30 and 3.0 mg/kg of body weight. The number of horn flies remaining after 24 hours exposure to the cattle in an enclosed room was determined on test days 2, 4, 9, 11, 16, 18, 23 and 25 and was compared to the number remaining for the control group. The percent reduction in horn flies was notable for the 0.30 and 3.0 mg/kg test groups.

[3] = test system: house fly (Musca domestica); assay: Fecal bioassay: emergence of adult house flies from manure of horses given oral spinosad feed-through
Experimental: as §1, §2, §3
Another study was carried out, similar to the above study, with a few changes. There were three spinosad administered groups, with the rates of spinosad being 0.4, 0.5, and 0.6 mg spinosad/kg of body weight. […]

[4] = Concentration of spinosyn A in fecal samples of treated horses
Experimental: as §2, §3, §4

[5] = Observed adverse effects in horses under feed-through administration
Experimental: as §1, §2, §4

| Molecule | Reduction of the emergence of stable flies ([1]; second study, horses, 0.6-0.7 mg cyromazine/kg) | percent reduction in horn flies vs control group ([2]; oral 0.30 mg/kg in feed, from day 9 and on) | percent reduction in horn flies vs control group ([2]; oral 3.0 mg/kg in feed, all time points (days 2-25)) | effective in preventing emergence of adult house flies ([3]; first study, all 4 groups (0.6, 0.8, 1.0, 1.2 mg spinosad/kg body weight/day), all three post-administration collection days (3, 10, 17)) | efficacy in preventing emergence of adult house flies ([3]; second study, all three spinosad groups (0.4, 0.5, 0.6 mg/kg), all three fecal sample collection dates) | mean spinosyn A concentration in fecal samples ([4]; first study, 0.6 mg spinosad/kg of body weight group, all three animals) | mean spinosyn A concentration in fecal samples ([4]; first study, 0.8 mg spinosad/kg of body weight group, all three animals) | mean spinosyn A concentration in fecal samples ([4]; first study, 1.2 mg spinosad/kg of body weight group) | concentration of spinosyn A in fecal samples (lowest single sample) ([4]; first study, one horse, 0.6 mg spinosad/kg group, study day 3) | concentration of spinosyn A in fecal samples (highest single sample) ([4]; first study, one horse, 1.2 mg spinosad/kg group, study day 10) | mean spinosyn A concentration in fecal samples ([4]; second study, 0.4 mg spinosad/kg group, all three animals, all three post-administration dates) | mean spinosyn A concentration in fecal samples ([4]; second study, 0.5 mg spinosad/kg group, all three animals, all three post-administration dates) | mean spinosyn A concentration in fecal samples ([4]; second study, 0.6 mg spinosad/kg group, all three animals, all three post-administration dates) | adverse effects ([5]; first study, horses, 0.6-1.2 mg spinosad/kg body weight/day, daily for the study) | adverse effects ([5]; second study, horses, 0.4, 0.5, 0.6 mg spinosad/kg) | reduction in stable fly emergence ([1]; first study, 0.6 mg spinosad/kg of body weight group, study day 17 fecal sample collection) | Reduction in emergence of stable fly adults ([1]; first study, horses, all 4 spinosad treatments (0.6-1.2 mg/kg/day) at all three post-administration collections, with one exception) | reduction in stable fly emergence ([1]; second study, 0.4 mg spinosad/kg of body weight group, study day 10 fecal sample collection) | Reduction of the emergence of stable flies ([1]; second study, horses, all three spinosad groups (0.4, 0.5, 0.6 mg/kg), with one exception) |
| --- | --- | --- | --- | --- | --- | --- | --- | --- | --- | --- | --- | --- | --- | --- | --- | --- | --- | --- | --- |
| Nc1nc(N)nc(NC2CC2)n1 [cyromazine] | 100% |  |  |  |  |  |  |  |  |  |  |  |  |  |  |  |  |  |  |
| spinosad |  | at least 63.3% | at least 89.2% | 100% | 100% | 3.4 ppm | 2.9 ppm | 5.5 ppm | 0.9 ppm | 8.6 ppm | 2.2 ppm | 3.2 ppm | 3.7 ppm | no observed adverse effects | no observed adverse effects | 97.25% | 100% | 99.3% | 100% |
